These results are taken from patent US8039500B2, “Fused heterocyclic compounds” (Takeda Pharmaceutical Company Limited, priority 2006, dated 2011).

Some results are limits rather than exact numbers.

Test system in one data set: not given
Experiment: not given
Conditions: not given
Turning to `CCN(CC)c1cccc2nc(Cc3c(Cl)cc(C(F)(F)F)cc3Cl)n(C)c12` [Example 2, 2-[2,6-Dichloro-4-(trifluoromethyl)benzyl]-N,N-diethyl-1-methyl-1H-benzimidazol-7-amine], the melting point (in general, the temperature, or range, at which the solid turns liquid) was in the range of 150 to 151 °C.
Still for that read-out and setting: for `CCC(CC)c1cccc2nc(C(O)c3c(C)cc(C)cc3C)n(C)c12` (stereo not drawn) [Example 10, [7-(1-Ethylpropyl)-1-methyl-1H-benzimidazol-2-yl](mesityl)methanol] the value was 132 to 134 °C.

The target in a further data set is T1, human CRF receptor (Homo sapiens, UniProt P34998).
T1 construct: expressed in transfected cells; host or cells: CHO cells (membrane fraction)
T1 sequence (P34998 24-415): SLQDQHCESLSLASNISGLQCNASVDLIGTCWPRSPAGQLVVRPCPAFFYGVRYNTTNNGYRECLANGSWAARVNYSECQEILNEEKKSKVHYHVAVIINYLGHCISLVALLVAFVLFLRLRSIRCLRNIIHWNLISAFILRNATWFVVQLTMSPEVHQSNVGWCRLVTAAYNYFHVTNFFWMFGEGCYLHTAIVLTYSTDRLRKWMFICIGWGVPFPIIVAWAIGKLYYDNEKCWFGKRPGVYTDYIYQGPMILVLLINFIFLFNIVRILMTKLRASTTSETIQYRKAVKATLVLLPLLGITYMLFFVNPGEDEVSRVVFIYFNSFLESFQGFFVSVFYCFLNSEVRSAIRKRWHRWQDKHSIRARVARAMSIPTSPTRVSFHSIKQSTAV
Nature of the data set: CRF binding inhibitory rate / receptor binding experiment with 125I-CRF. As to conditions: human CRF receptor expressing CHO cellular membrane fraction, 50 pM 125I-CRF (ovine CRF), room temperature 1.5 hr, 0.05 nM to 10 μM of compound; read-out: IC50 values (CRF binding inhibition). The method, then: Measurement of CRF Binding Inhibitory Rate
A receptor binding experiment was carried out using a human CRF receptor expressing CHO cellular membrane fraction and ovine CRF, [^125I]-tyr^0(^125I-CRF). 1000 nM of a test compound was incubated with 1 μg of human CRF receptor expressing CHO cellular membrane fraction and 50 pM of ^125I-CRF in a binding assay buffer (50 mM Tris-HCl, 5 mM EDTA, 10 mM MgCl2, 0.05% CHAPS, 0.1% BSA, 0.5 mM PMSF, 0.1 μg/mL pepstatin, 20 μg/mL leupeptin, pH 7.5). In addition, for measuring nonspecific binding (NSB), 0.1 μM unlabelled human Urocortin was incubated with 5 μg of human CRF receptor expressing CHO cellular membrane fraction and 50 pM of ^125I-CRF in a binding assay buffer. After a binding reaction was carried out at room temperature for 1.5 hr, the membrane was entrapped on a glass filter (UniFilter plate GF-C/Perkin Elmer) by suction filtration using a cell harvester (Perkin Elmer), and washed with ice-cooled 50 mM Tris-HCl (pH 7.5). After drying the glass filter, a liquid scintillation cocktail (Microscinti 0, Perkin Elmer) was added, and the radioactivity of ^125I-CRF remaining on a glass filter was measured using Topcount (Perkin Elmer).
(TB-SB)/(TB-NSB)×100 (SB: radioactivity when a compound is added, TB: maximum binding radioactivity, NSB: nonspecific binding radioactivity) were calculated to obtain binding inhibitory rates under the range of the presence from 0.05 nM to 10 μM of each compound. The IC50 values were calculated by using GraphPad Prism software.
On to `CC=C(CC)c1cccc2nc(Cc3c(C)cc(C)cc3C)n(C)c12` (mixture of isomers) [Example 4, 7-[1-Ethylprop-1-en-1-yl]-2-(mesitylmethyl)-1-methyl-1H-benzimidazole], for which the IC50 (as a rule, the concentration that gives 50% inhibition) was under 1 µM.
On the same count and under the same terms, the figure for `CCC(c1cccc2nc(Cc3c(Cl)cc(C(F)(F)F)cc3Cl)n(C)c12)C(C)OC(C)=O` (mixture of isomers) [Example 8, 2-{2-[2,6-Dichloro-4-(trifluoromethyl)benzyl]-1-methyl-1H-benzimidazol-7-yl}-1-methylbutyl acetate] is under 1 µM; for `CCN(CC)c1cccc2nc(Cc3c(C)cc(C)cc3C)n(C)c12` [Example 1, N,N-Diethyl-2-(mesitylmethyl)-1-methyl-1H-benzimidazol-7-amine] it is under 1 µM.
The same measure, in the same setting: for `CCN(CC)c1cccc2nc(Cc3c(Cl)cc(C(F)(F)F)cc3Cl)n(C)c12` [Example 2, 2-[2,6-Dichloro-4-(trifluoromethyl)benzyl]-N,N-diethyl-1-methyl-1H-benzimidazol-7-amine] the value was under 1 µM; for `CCC(O)(CC)c1cccc2nc(Cc3c(C)cc(C)cc3C)n(C)c12` [Example 3, 3-[2-(Mesitylmethyl)-1-methyl-1H-benzimidazol-7-yl]pentan-3-ol], under 1 µM.
On the same count and under the same terms, for `CCC(CC)c1cccc2nc(Cc3c(C)cc(C)cc3C)n(C)c12` [Example 5, 7-(1-Ethylpropyl)-2-(mesitylmethyl)-1-methyl-1H-benzimidazole] the value was under 1 µM; for `CCC(O)(CC)c1cccc2nc(Cc3c(Cl)cc(C(F)(F)F)cc3Cl)n(C)c12` [Example 6, 3-{2-[2,6-Dichloro-4-(trifluoromethyl)benzyl]-1-methyl-1H-benzimidazol-7-yl}pentan-3-ol], under 1 µM.
Turning to `CC=C(CC)c1cccc2nc(Cc3c(Cl)cc(C(F)(F)F)cc3Cl)n(C)c12` [Example 7, 2-[2,6-Dichloro-4-(trifluoromethyl)benzyl]-7-[1-ethylprop-1-en-1-yl]-1-methyl-1H-benzimidazole], the half-inhibitory concentration (IC50) is under 1 µM.
In the case of `CCC(c1cccc2nc(Cc3c(Cl)cc(C(F)(F)F)cc3Cl)n(C)c12)C(C)O` (stereo not drawn) [Example 9, 3-{2-[2,6-Dichloro-4-(trifluoromethyl)benzyl]-1-methyl-1H-benzimidazol-7-yl}pentan-2-ol], the IC50 is under 1 µM.
Still for that read-out and setting: the figure for `CCC(CC)c1cccc2nc(C(O)c3c(C)cc(C)cc3C)n(C)c12` (stereo not drawn) [Example 10, [7-(1-Ethylpropyl)-1-methyl-1H-benzimidazol-2-yl](mesityl)methanol] is under 1 µM.
